From PubChem BioAssay (NCI)
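Values below derive from 48-hour exposures of cells grown in 96-well plates, with endpoints linearly interpolated between the two concentrations bracketing the appropriate inhibition level. GI50: concentration for 50% inhibition of growth. Definition used: TGI = concentration required for complete inhibition of growth.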

What was measured:
Assay in all cases: NCI tumour cell line growth inhibition, 48 h
DLD-1 colon = system: DLD-1 colon
DMS 114 small cell lung = system: DMS 114 small cell lung
DMS 273 small cell lung = system: DMS 273 small cell lung
KM20L2 colon = system: KM20L2 colon
LXFL 529 NSCLC = system: LXFL 529 NSCLC
M19-MEL melanoma = system: M19-MEL melanoma
RXF-631 renal = system: RXF-631 renal
XF 498 CNS = system: XF 498 CNS
MDA-N = system: MDA-N

| Structure (SMILES) | TGI (DLD-1 colon) | TGI (DMS 114 small cell lung) | TGI (DMS 273 small cell lung) | TGI (KM20L2 colon) | TGI (LXFL 529 NSCLC) | TGI (M19-MEL melanoma) | TGI (RXF-631 renal) | TGI (XF 498 CNS) | TGI (MDA-N) | GI50 (DLD-1 colon) | GI50 (DMS 114 small cell lung) | GI50 (DMS 273 small cell lung) | GI50 (LXFL 529 NSCLC) | GI50 (M19-MEL melanoma) | GI50 (RXF-631 renal) | GI50 (MDA-N) |
| --- | --- | --- | --- | --- | --- | --- | --- | --- | --- | --- | --- | --- | --- | --- | --- | --- |
| CCc1ccccc1NC(=O)c1cccc([N+](=O)[O-])c1O | > 100 µM | 51.5 µM | 86.2 µM | 93.3 µM | > 100 µM | 82.4 µM | > 100 µM | 57.9 µM |  |  |  |  |  |  |  |  |
| O=c1/c(=C/c2ccccc2[N+](=O)[O-])sc2nnc(-c3cccnc3)n12 | > 100 µM | > 100 µM | > 100 µM | > 100 µM | > 100 µM | > 100 µM | > 100 µM | > 100 µM |  |  |  |  |  |  |  |  |
| COC1N(C2CC(O)C(CO)O2)C(=O)NC(=O)C1(F)Br (centres undefined) | 50 µM | 50 µM | 50 µM | 50 µM | 50 µM |  | 50 µM | 50 µM | > 100 µM |  |  |  |  |  |  |  |
| Nc1ncc(Cc2ccc3c(c2)OCO3)c(N)n1 |  |  |  |  |  |  |  |  | > 100 µM |  |  |  |  |  |  |  |
| N#CNC(N)=NCc1ccccc1 | > 100 µM | > 100 µM | > 100 µM | > 100 µM | > 100 µM | > 100 µM |  |  |  |  |  |  |  |  |  |  |
| CCN(C)c1nc(N(C)CC)c2nc(N(C)CC)nc(N(C)CC)c2n1 |  |  |  |  |  |  |  |  | > 100 µM |  |  |  |  |  |  |  |
| COc1cc([C@@H]2c3cc4c(cc3[C@@H](NC(=O)c3ccc(C#N)cc3)C3COC(=O)[C@@H]32)OCO4)cc(OC)c1O (some centres undefined) | 12 µM | 2.27 µM | 10.3 µM | 4.51 µM | > 100 µM | 15.6 µM |  |  |  |  |  |  |  |  |  |  |
| O=C1NC(=O)c2c1n(Cc1ccccc1)c(=O)n2Cc1ccccc1 | > 100 µM | > 100 µM | > 100 µM | > 100 µM | > 100 µM | > 100 µM |  |  |  |  |  |  |  |  |  |  |
| CCCCCCCC(=O)OCC(COC(=O)C(C)(C)C)OC(=O)Cc1ccccc1 (centres undefined) | > 100 µM | > 100 µM | > 100 µM | > 100 µM | > 100 µM | > 100 µM |  |  |  |  |  |  |  |  |  |  |
| O=C1Oc2ccccc2C(=O)/C1=C1/C=C(c2ccccc2)SS1 |  |  |  |  |  |  |  |  | > 100 µM |  |  |  |  |  |  |  |
| CC(Br)C(=O)NC(CO)C(=O)O (centres undefined) |  |  |  |  |  |  |  |  | > 100 µM |  |  |  |  |  |  |  |
| CCOC(=O)c1nc(C)oc1C(F)(F)F | > 100 µM | > 100 µM |  | > 100 µM | > 100 µM | > 100 µM |  | > 100 µM |  |  |  |  |  |  |  |  |
| O=c1cc(O)cc2n1CCC2 | > 100 µM | > 100 µM | > 100 µM | > 100 µM | > 100 µM |  | > 100 µM | > 100 µM |  |  |  |  |  |  |  |  |
| COc1nc2c(c(O)c(C)c(=O)n2OC2OCC(OC(C)=O)C(OC(C)=O)C2OC(C)=O)c(=O)n1C (centres undefined) | > 100 µM | > 100 µM | > 100 µM | > 100 µM | > 100 µM | > 100 µM |  | > 100 µM |  |  |  |  |  |  |  |  |
| COC(=O)C1C(=O)O[C@@H](c2ccc3c(c2)OCO3)C1C(=O)OC (mixture of isomers) | > 100 µM | > 100 µM | > 100 µM | > 100 µM | > 100 µM | > 100 µM | > 100 µM |  |  |  |  |  |  |  |  |  |
| COc1cc(C)c(CC/C(C)=C/Cc2cc(O)ccc2O)c(C)c1C | > 25 µM | > 25 µM | > 25 µM | > 25 µM | > 25 µM | > 25 µM |  | > 25 µM |  |  |  |  |  |  |  |  |
| Cc1nc(N)nc(CCC(=O)Nc2cccc(C(F)(F)F)c2)c1-c1ccc(Cl)cc1 | > 100 µM | > 100 µM | > 100 µM | > 100 µM | > 100 µM | > 100 µM | > 100 µM | > 100 µM |  |  |  |  |  |  |  |  |
| Cc1ccc(S(=O)(=O)OCC/C(=C\[Si](C)(C)C)c2ccccc2)cc1 | > 100 µM | > 100 µM | > 100 µM | > 100 µM | > 100 µM | > 100 µM |  | > 100 µM |  |  |  |  |  |  |  |  |
| N#CC(C(=O)C(=O)Nc1c(Cl)cccc1Cl)c1ccccc1 (centres undefined) | > 100 µM | > 100 µM | > 100 µM |  | > 100 µM | > 100 µM | > 100 µM | > 100 µM |  | > 100 µM | > 100 µM | > 100 µM | > 100 µM | > 100 µM | > 100 µM |  |
| OCc1cc2c(cn1)[nH]c1ccc(NCc3ccccc3)cc12 | > 100 µM | 51.1 µM | 48 µM | 55.6 µM | 58.8 µM | 60.3 µM | > 100 µM | 59.2 µM |  |  |  |  |  |  |  |  |

| Structure (SMILES) | TGI (DLD-1 colon) | TGI (DMS 114 small cell lung) | TGI (DMS 273 small cell lung) | TGI (KM20L2 colon) | TGI (LXFL 529 NSCLC) | TGI (M19-MEL melanoma) | TGI (RXF-631 renal) | TGI (XF 498 CNS) | TGI (MDA-N) | GI50 (DLD-1 colon) | GI50 (DMS 114 small cell lung) | GI50 (DMS 273 small cell lung) | GI50 (LXFL 529 NSCLC) | GI50 (M19-MEL melanoma) | GI50 (RXF-631 renal) | GI50 (MDA-N) |
| --- | --- | --- | --- | --- | --- | --- | --- | --- | --- | --- | --- | --- | --- | --- | --- | --- |
| O=[N+]([O-])c1ccc(Cl)c2c([N+](=O)[O-])cccc12 |  |  |  |  |  |  |  |  | 4.29 µM |  |  |  |  |  |  |  |
| O=C(NC12CC3CCC1CC(C3)C2)[C@@H]1CCCN1C(=O)OCc1ccccc1 (some centres undefined) | > 100 µM | > 100 µM | > 100 µM | > 100 µM | > 100 µM | > 100 µM |  | > 100 µM |  |  |  |  |  |  |  |  |
| O=c1c2ccccc2sc2c(CO)ccc(NCCN3CCCCC3)c12 |  |  |  |  |  |  |  |  | 11.6 µM |  |  |  |  |  |  |  |
| COc1cc2oc(-c3ccc(O)cc3)cc(=O)c2c(O)c1C1OC(CO)C(O)C(O)C1O (centres undefined) | > 100 µM | > 100 µM | > 100 µM | > 100 µM | > 100 µM | > 100 µM |  | > 100 µM |  |  |  |  |  |  |  |  |
| COC(=O)/C=C(/C(=O)OC)C1(C)c2cc(C(=O)OC)c(C(=O)OC)c(N)c2C(=N)N1c1ccccc1 (centres undefined) | 29.4 µM | 31.6 µM | > 100 µM | 34.8 µM | 38.6 µM | 41.9 µM | 86.9 µM | 28.4 µM |  |  |  |  |  |  |  |  |
| C[C@]12Cc3cn[nH]c3C(=O)C1CC[C@@H]1C2CC[C@@]2(C)C1CC[C@@H]2O (some centres undefined) |  | > 100 µM | > 100 µM | > 100 µM | > 100 µM |  |  | > 100 µM |  |  |  |  |  |  |  |  |
| c1ccc2c(c1)SCCCS2 |  |  |  |  |  |  |  |  | > 100 µM |  |  |  |  |  |  |  |
| COc1cc(CNc2nc3cc(N)cc(N)c3nc2-c2ccccc2)cc(OC)c1 |  |  |  |  |  |  |  |  | 5.21 µM |  |  |  |  |  |  | 2.33 µM |
| O=C1/C(=C\c2ccccc2)CN(C(=O)CCN2CCCCC2)C/C1=C/c1ccccc1 | 3.12 µM | 3.05 µM | 3.1 µM | 2.97 µM | 3.05 µM | 1.78 µM | 4.69 µM | 3.84 µM | 5.4 µM |  |  |  |  |  |  |  |
| N#C/C(=C\c1cc(OCc2ccccc2)c(OCc2ccccc2)cn1)C(N)=O | > 100 µM | > 100 µM |  | > 100 µM | > 100 µM | > 100 µM | > 100 µM | > 100 µM |  |  |  |  |  |  |  |  |
| O=[N+]([O-])c1ccccc1C1SCc2nc3ccccc3n21 (centres undefined) | > 100 µM | > 100 µM | > 100 µM |  | > 100 µM |  | > 100 µM | > 100 µM |  |  |  |  |  |  |  |  |
| COC(=O)C1C(C(=O)OC)C2C(=O)C3C(C(=O)OC)C(C(=O)OC)C3C(=O)C12 (centres undefined) |  |  | > 100 µM | > 100 µM | > 100 µM | > 100 µM | > 100 µM | > 100 µM |  |  |  |  |  |  |  |  |
| COc1cc(Nc2cnc3ccc(C(F)(F)F)cc3n2)cc(OC)c1OC |  |  | > 100 µM | 22.5 µM | > 100 µM | > 100 µM |  |  |  |  |  |  |  |  |  |  |
| CC1=NN(C(=O)Cc2ccccc2)C(=O)/C1=C\c1ccc(O)cc1 | > 100 µM | > 100 µM |  | > 100 µM | > 100 µM | > 100 µM |  | > 100 µM |  |  |  |  |  |  |  |  |
| COC(=O)CCC(NC(=S)N/N=C/c1cccs1)C(=O)OC (centres undefined) | > 100 µM | > 100 µM | > 100 µM | > 100 µM | > 100 µM | > 100 µM | > 100 µM | > 100 µM |  |  |  |  |  |  |  |  |
| O=C1[C@@H]2C(c3c(Cl)cccc3Cl)=NO[C@@H]2C(=O)N1c1ccc(Cc2ccc(N3C(=O)[C@H]4C(c5c(Cl)cccc5Cl)=NO[C@H]4C3=O)cc2)cc1 | > 100 µM | > 100 µM | > 100 µM | > 100 µM | > 100 µM | > 100 µM |  | > 100 µM |  |  |  |  |  |  |  |  |
| COc1ccc(CNc2cnc3ccc(N)cc3n2)cc1 | > 100 µM | > 100 µM | > 100 µM |  |  | > 100 µM |  | > 100 µM |  |  |  |  |  |  |  |  |
| Cc1cc([N+](=O)[O-])c(C)c2c1[nH]c1ccc(Cl)cc12 |  | > 100 µM | > 100 µM |  |  | > 100 µM |  | > 100 µM |  |  |  |  |  |  |  |  |
| CC1=C(C(=O)Nc2ccccc2)C(c2ccc(N(C)C)cc2)C(C(=O)Nc2ccccc2)=C(C)N1 | > 100 µM | 6.57 µM | > 31.8 µM | 7.26 µM | > 100 µM | > 28.9 µM |  | > 100 µM | > 100 µM |  |  |  |  |  |  |  |
